Assay results: patent US20140100216A1, “STIMULATORS OF INCRETIN HORMONES SECRETION, METHOD FOR PREPARATION AND USE THEREOF” (priority 2011, published 2014)
pEC50: −log10 of the molar value.

How the values were obtained:
[1] = tested on: diabesity mice of db/db line; assay: Influence of rectal administration of bile acid GDC on blood glucose level; type: in vivo; conditions: male db/db mice
Protocol: The influence of rectal administration of glycodeoxycholic acid (GDC) on glucose level in blood was studied at diabesity mice of db/db line. Glucose level at male db/db mice (39.5 g) was measured 24 hs before and at the moment of rectal administration, and then in 1, 2, 3, 4, 5, 6, and 24 hs afterwards. […] The gel was prepared on the base of methyl cellulose water solution (1%) and Tween-80 (2%). GDC BA administration in both doses effectively and statistically valid reduced glucose concentration in plasma of diabesity mice of db/db line (on 24%—at 50 mmol and on 20% at 5 mmol).

[2] = biological target: T1, human TGR5 (hTGR5) receptors (Homo sapiens, UniProt Q8TDU6); assay: Agonistic activity towards TGR5 receptors, increase of intracellular cAMP in HEK-293 cells; type: cell-based; conditions: HEK-293 cells expressing hTGR5, read-out: Activity (agonistic activity, EC50 class)
T1 construct: expressed in transfected cells; host or cells: HEK-293
T1 sequence (Q8TDU6 1-330): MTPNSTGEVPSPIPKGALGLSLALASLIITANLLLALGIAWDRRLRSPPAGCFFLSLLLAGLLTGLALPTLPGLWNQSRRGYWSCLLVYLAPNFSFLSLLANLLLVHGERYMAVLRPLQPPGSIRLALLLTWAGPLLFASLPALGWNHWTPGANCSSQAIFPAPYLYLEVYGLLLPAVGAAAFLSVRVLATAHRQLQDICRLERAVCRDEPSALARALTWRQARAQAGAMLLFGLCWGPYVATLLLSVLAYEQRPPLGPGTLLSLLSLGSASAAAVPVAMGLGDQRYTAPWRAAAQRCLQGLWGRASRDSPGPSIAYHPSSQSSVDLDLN
Protocol: Screening of compounds of the general formula 1 was carried out in experiments on cells of HEK-293 line, in which human TGR5 (hTGR5) receptors were expressed. Agonistic activity of compounds was estimated by increasing of intracellular cAMP concentration.

[3] = tested on: diabesity mice of db/db line; assay: Influence of rectal BA administration on weight change at diabesity; type: in vivo; conditions: GDC 5 and 50 mmol gel rectally + Sitagliptin 30 mg/kg peroral, weighed 2 days after administration
Protocol: Influence of rectal administration of glycodeoxycholic acid (GDC) on weight change of mice of db/db line at diabesity was investigated. […] The gel was prepared on the base of methyl cellulose water solution (1%) and Tween-80 (2%). The animals were weighted 2 days before the experiment, at the moment of administration and 2 days after administration of compositions.

pEC50 [2] | Compound | further results
– | N[C@@H](CC(=O)N1CCn2c(nnc2C(F)(F)F)C1)Cc1cc(F)c(F)cc1F [Sitagliptin, reference compound] | lowering of glucose level in blood plasma ([1]; Sitagliptin alone (vehicle gel + Sitagliptin 30 mg/kg)): 5-10%
5.00 to 6.00 | Cc1ccc(-c2ccccc2CN2C(=O)COc3ccccc3C2C(=O)NC(C)(C)C)cc1 (stereo not drawn) [Compound 96, 4-[2-(4-methylphenyl)benzyl]-3-oxo-2,3,4,5-tetrahydrobenzo[f][1,4]oxazepine-5-carboxylic acid tert-butylamide] | –
– | CC(CCC(=O)NCC(=O)O)C1CCC2C3CCC4CC(O)CCC4(C)C3CC(O)C12C (stereo not drawn) [GDC, glycodeoxycholic acid] | reduction of glucose concentration in plasma ([1]; GDC 5 mmol gel rectally + Sitagliptin 30 mg/kg perorally 15 min before): 20%; reduction of glucose concentration in plasma ([1]; GDC 50 mmol gel rectally + Sitagliptin 30 mg/kg perorally 15 min before): 24%; weight change of animals [3]: effectively and statistically-valid reduced weights of experimental animals
5.00 to 6.00 | CC(C)(C)NC(=O)C1c2cc(F)ccc2OCCN1Cc1ccccc1-c1ccncc1 (stereo not drawn) [Compound 18, 4-[2-(pyridin-4-yl)benzyl]-7-fluoro-2,3,4,5-tetrahydrobenzo[f][1,4]oxazepine-5-carboxylic acid tert-butylamide] | –
< 5.00 | O=C(NC1CCCC1)C1c2cc(C(F)(F)F)ccc2OCC(=O)N1Cc1cccc(-c2ccccc2)c1 (stereo not drawn) [Compound 81, 4-(3-phenylbenzyl)-3-oxo-7-trifluoromethyl-2,3,4,5-tetrahydrobenzo[f][1,4]oxazepine-5-carboxylic acid cyclopentylamide] | –
< 5.00 | Cc1cccc(-c2ccccc2CN2C(=O)COc3ccccc3C2C(=O)NC(C)(C)C)c1 (stereo not drawn) [Compound 97, 4-[2-(3-methylphenyl)benzyl]-3-oxo-2,3,4,5-tetrahydrobenzo[f][1,4]oxazepine-5-carboxylic acid tert-butylamide] | –
> 6.00 | O=C(NC1CCCCC1)C1c2cc(C(F)(F)F)ccc2OCCN1Cc1cccc(-c2ccccc2)c1 (stereo not drawn) [Compound 15, 4-(3-phenylbenzyl)-7-trifluoromethyl-2,3,4,5-tetrahydrobenzo[f][1,4]oxazepine-5-carboxylic acid cyclohexylamide] | –
< 5.00 | O=C(NC1CCCC1)C1c2cc(C(F)(F)F)ccc2OCCN1Cc1cccc(-c2ccccc2)c1 (stereo not drawn) [Compound 14, 4-(3-pheylbenzyl)-7-trifluoromethyl-2,3,4,5-tetrahydrobenzo[f][1,4]oxazepine-5-carboxylic acid cyclopentylamide] | –
< 5.00 | CC(C)(C)NC(=O)C1c2ccccc2OCC(=O)N1Cc1ccccc1-c1ccncc1 (stereo not drawn) [Compound 90, 4-[2-(pyridin-4-yl)benzyl]-3-oxo-2,3,4,5-tetrahydrobenzo[f][1,4]oxazepine-5-carboxylic acid tert-butylamide] | –
> 6.00 | CC(C)(C)NC(=O)C1c2cc(F)ccc2OCCN1Cc1ccccc1-c1ccc(F)cc1 (stereo not drawn) [Compound 50, 4-[2-(4-fluorophenyl)benzyl]-7-fluoro-2,3,4,5-tetrahydrobenzo[f][1,4]oxazepine-5-carboxylic acid tert-butylamide] | –
